One assay addresses T1, CXCL122 (Homo sapiens, UniProt P48061, A86C/L57C).
T1 construct: made in house
Description: 2D NMR (1H-15N HSQC) titration of CXCR4 peptides into CXCL122. Format: binding. Conditions: for ΔG: ΔG = −RT ln Kd @ 298 K. The method, then: (§1) NMR spectroscopy. All NMR spectra were acquired on a Bruker DRX 600 MHz spectrometer equipped with a ^1H, ^15N, ^13C TXI cryoprobe at 298 K. Experiments were performed with either 50 μM [U-^15N]-CXCL12WT, -CXCL121, or -CXCL122 proteins in a solution containing 25 mM deuterated MES (pH 6.8), 10% (v/v) D2O, and 0.02% (w/v) NaN3. Full-length CXCR41-38 peptide titrations required 20 μM [U-^15N]-CXCL121 and -CXCL122 protein samples. Sulfated CXCR4 peptides were reconstituted at 100 mM in 25 mM deuterated MES, 10% (v/v) D2O, and 0.02% (w/v) NaN3 buffer. Unsulfated CXCR4 peptides were similarly reconstituted to 15 mM. Two separate 4ISIYTSD10 (SEQ ID NO:8) peptide samples were reconstituted at 10 mM and 15 mM peptide in 25 mM deuterated MES, 10% (v/v) D20, 0.02% (w/v) NaN3 buffer, from lyophilized powder.
(§2) Total peptide additions differed for individual peptide titrations but ranged from 0-160 equivalencies. Spectra were processed using in-house scripts and chemical shift tracking was performed using CARA software. Combined ^1H/^15N chemical shift perturbations were calculated as ((5 ΔδH)^2+(ΔδNH)^2)^0.5, where δH and δNH are the amide proton and nitrogen chemical shifts, respectively. Equilibrium dissociation constants (Kd) were determined by non-linear fitting of the combined ^1H/^15NH chemical shift perturbations as a function of peptide concentration to a single-site quadratic equation. For a given interaction, residues with the largest chemical shift perturbations were fitted individually. The resulting Kd values and their respective fitting errors were then averaged to produce the reported affinity and standard deviation for that interaction.

The target in the next assay is T2, CXCL121 (Homo sapiens, UniProt P48061, I79C/L76C).
T2 construct: made in house
Description: 2D NMR (1H-15N HSQC) titration of CXCR4 peptides into CXCL121. Format: binding. Conditions: for ΔG: ΔG = −RT ln Kd @ 298 K. As for the experimental part:
as §1, §2

A further assay addresses T3, CXCL12WT (Homo sapiens, UniProt P48061).
T3 construct: made in house
Description: 2D NMR (1H-15N HSQC) titration of CXCR4 peptides into CXCL12WT. The format is binding. Conditions: for ΔG: ΔG = −RT ln Kd @ 298 K. The method, then: as §1, §2

In a further assay the target is T4, CXCL12WT dimerization (Homo sapiens, UniProt P48061).
T4 construct: made in house
Description: Intrinsic tryptophan fluorescence polarization assay of CXCL12WT dimerization. The format is binding. Conditions: for coupling energy linking CXCL12 dimerization to sTyr21 pocket binding: thermodynamic cycle. The method, then: Fluorescence polarization assay. Fluorescence polarization (FP) assays were performed on a PTI spectrofluorometer equipped with automated polarizers, using a time base polarization method provided by the program Felix32. […] Experiments were performed in duplicate and the reported dimerization Kd values reflect the average of both experiments.

The test system of the next assay is MiaPaCa2 cells. Description: MiaPaCa2 chemotaxis (Transwell). Conditions: 6 h stimulation; relative to CXCL12WT. The format is cell-based. As for the experimental part: MiaPaCa2 chemotaxis. Chemotactic migration of pancreatic cancer MiaPaCa2 cells was performed as previously described using Transwell plates coated with 15 ug/ml collagen. Briefly, MiaPaCa2 cells were serum starved for 2 hours, lifted using enzyme-free dissociation buffer, washed and then counted using a hemocytometer. 100,000 cells in 10 uL of serum free media were plated into the top chamber of each Transwell. The bottom chamber of each Transwell contained each stimulant in 500 uL serum free media. MiaPaCa2 cells were allowed to migrate for 6 hours, after which the cells remaining on the top of the chamber were swabbed out. Plates were then fixed in 4% paraformaldehyde and stained with DAPI. Migrated cells were visualized and counted by fluorescence microscopy, with 5 representative high-powered fields taken per well.

For the next assay, the system named is U-937 cells. Description: Agarose microdroplet assay of U-937 migration. The format is cell-based. The method, then:
Agarose microdroplet assay. The agarose microdroplet assay was performed to determine U-937 cellular migration, as previously described. 0.5×10^6 cells/ml U-937 target cells were harvested and washed in HBSS. Cells were spun at 2,000 rpm and were transferred to a graduated 15 ml glass conical tube. The cell concentration was adjusted in agarose medium, prepared from 2% low melting temperature Seaplaque agarose and medium containing 15% FBS, using a 1:4 volume-to-volume dilution. A 1 μl agarose droplet containing 1-10^5 target cells was placed in the center of each well of a 96-well flat-bottom tissue culture plate, in triplicate, using a gastight 0.05 ml Hamilton syringe (Hamilton Company, Reno, Nev.). Droplets were allowed to harden at 4° C. for 20 min. 200 μl chilled test media was applied to each well. […] The plate was incubated for 18-24 h at 37° C. and 5% CO2. Following incubation, the radius of each droplet was determined and target cell migration was measured at four directional points 900 from one another, using an inverted light microscope equipped with a gridded eyepiece, at 40× total magnification. Percent inhibition of each sample was quantified. The plate was incubated for an additional 24 h to measure recovery, and viability was determined by trypan blue exclusion.
Agarose microdroplet assay. The agarose microdroplet assay was performed to determine U-937 cellular migration, as previously described {AdeCXCL121an, 1980 #1609}. 0.5×10^6 cells/ml U-937 target cells were harvested and washed in HBSS. Cells were spun at 2,000 rpm and were transferred to a graduated 15 ml glass conical tube. […] Following incubation, the radius of each droplet was determined and target cell migration was measured at four directional points 900 from one another, using an inverted light microscope equipped with a gridded eyepiece, at 40× total magnification. Percent inhibition of each sample was quantified. The plate was incubated for an additional 24 h to measure recovery, and viability was determined by trypan blue exclusion.

In a further assay the test system is THP-1 cells. Description: THP-1 chemotaxis (Transwell). The format is cell-based. Conditions: 3 h stimulation. As for the experimental part:
THP-1 chemotaxis. Chemotaxis experiments were performed using Tranwell ([…]; Costar) in 24-well format. […] THP-1 cells were washed twice and […] cells were added to the upper chamber. Plates were incubated for 3 h at 37° C., 5% CO2. Following incubation, Transwell membranes were removed and cells that migrated into the lower chamber were counted using a TC-10 Automated Cell Counter (BioRad) and hemocytometer. The chemotactic index was calculated as the difference in migrated cell number between those exposed to chemokine and the vehicle control.

A further assay concerns KG1a cells. Description: Apoptosis assays in KG1a cells expressing CXCR4-YFP. The format is cell-based, human. Conditions: 100 ng/ml. The method, then:
Apoptosis assays. KG1a (human acute myelogenous leukemia) cells were assayed for CXCL12-dependent apoptosis as previously described. Briefly, CXCR4 expression on KG1a cells was achieved via transient transfection with a plasmid encoding a CXCR4-YFP fluorescent fusion protein. […] Apoptosis was assayed by staining cells with APC-conjugated annexin V to detect cell-surface phosphatidyl serine (BD Biosciences) or Alexaflour-647-conjugated antibody to detect cleaved PARP (BD Biosciences), and the percentage of YFP+ cells undergoing apoptosis was determined by flow cytometry.

For the next assay, the system named is NALM6 cells. Description: NALM6 chemotaxis (Boyden chamber). Format: cell-based. Conditions: 90 min stimulation; relative to CXCL12WT. The method, then: NALM6 chemotaxis. NALM6 cells were grown in RPMI-1640 supplemented with 10% FBS, 100 U/mL penicillin-streptomycin, 2 mM glutamine, 50 μM […], non-essential amino acids, 1 mM Na-pyruvate and 25 mM HEPES buffer (pH 7.3). Chemotaxis assays were performed in triplicate in 48-well Boyden chambers (NeuroProbe), using 5 μm pore-sized polyvinylpyrrolidone-free polycarbonate membranes. […] Cells ([…] per well) resuspended in chemotaxis medium were added to the upper well and incubated for 90 min at 37° C. in 5% CO2 atmosphere. Cells were removed from the upper part of the membrane with a rubber policeman. Cells attached to the lower side of the membrane were fixed and stained as described. Migrated cells were counted in five randomly selected fields of 1000-fold magnification.
NALM6 chemotaxis. NALM6 cells were grown in RPMI-1640 supplemented with 10% FBS, 100 U/mL penicillin-streptomycin, 2 mM glutamine, 50 μM 2-mercaptoethanol, non-essential amino acids, 1 mM Na-pyruvate and 25 mM HEPES buffer (pH 7.3). Chemotaxis assays were performed in triplicate in 48-well Boyden chambers (NeuroProbe), using 5 μm pore-sized polyvinylpyrrolidone-free polycarbonate membranes. […] Migrated cells were counted in five randomly selected fields of 1000-fold magnification.

[1] abbreviates: unsulfated vs sulfated Tyr7 peptide.

Several values for one entry are separate records, joined by “and”; a condition that tells them apart may be missing. Equal entries are not always repeated. Non-standard residues stand in square brackets, D forms with d. Residues, ends and D or L forms follow the SMILES beside them. sY = N[C@@H](Cc1ccc(OS(=O)(=O)O)cc1)C(=O)O

As for `CC[C@H](C)[C@H](NC(C)=O)C(=O)N[C@@H](CO)C(=O)N[C@H](C(=O)N[C@@H](Cc1ccc(OS(=O)(=O)O)cc1)C(=O)N[C@H](C(=O)N[C@@H](CO)C(=O)N[C@@H](CC(=O)O)C(N)=O)[C@@H](C)O)[C@@H](C)CC` [4ISIsYTSD10] (Ac-ISI[sY]TSD-NH2), the “ΔG” value is -4.65 kcal/mol at CXCL122, -3.02 kcal/mol on CXCL121 and -3.22 kcal/mol at CXCL12WT.
On the same counts, the results for `CC(=O)N[C@@H](CO)C(=O)N[C@@H](CC(=O)O)C(=O)N[C@@H](CC(N)=O)C(=O)N[C@@H](Cc1ccc(OS(=O)(=O)O)cc1)C(=O)N[C@H](C(=O)N[C@@H](CCC(=O)O)C(=O)N[C@@H](CCC(=O)O)C(N)=O)[C@@H](C)O` [9SDNsYTEE15] (Ac-SDN[sY]TEE-NH2) are -4.87 kcal/mol, -3.74 kcal/mol and -4.09 kcal/mol.
As to `CSCC[C@H](NC(=O)[C@H](CO)NC(=O)[C@H](CC(=O)O)NC(=O)[C@H](Cc1ccc(OS(=O)(=O)O)cc1)NC(=O)[C@H](CC(=O)O)NC(=O)CNC(=O)[C@H](CO)NC(C)=O)C(N)=O` [18SGDsYDSM24] (Ac-SGD[sY]DSM-NH2), the “binding to CXCL122 relative to CXCL12WT or CXCL121” value on CXCL122 (fold stronger) was 20 fold. Besides, the ΔGbind on CXCL122 (pathway 2: binding to dimerized CXCL12, 298 K) is −5.0 kcal mol^−; on CXCL121 (pathway 1: binding to CXCL12 before dimerization, 298 K) it was −3.8 kcal mol^−. Moreover, on CXCL122 (sulfated vs unsulfated Tyr21 peptide), the “binding to CXCL122 relative to the unsulfated variant” value is reported as “four-fold stronger”. Also, the “ΔG” value at CXCL122 is -5.01 kcal/mol; on CXCL121, -3.81 kcal/mol; at CXCL12WT it was -3.74 kcal/mol. Further, the “increase of CXCL12 dimerization affinity” value on CXCL12WT dimerization (by sTyr21 sulfopeptide) was “eight-fold”. In addition, the “coupling energy linking CXCL12 dimerization to sTyr21 pocket binding” value at CXCL12WT dimerization (first value) is reported as −1.2 kcal mol^−; on CXCL12WT dimerization (second value) it was −1.0 kcal mol^−.
On to Ac-ISIYTSD-NH2 [4ISIYTSD10], for which the results for the “ΔG” value on CXCL122, on CXCL121 and at CXCL12WT were -4.60 kcal/mol, -4.03 kcal/mol and -3.71 kcal/mol, respectively. Also, at CXCL121 (setting [1]), the “binding to CXCL121 relative to the sTyr7 sulfopeptide” value was “roughly five-fold stronger”. On CXCL12WT (setting [1]), the “affinity for CXCL12WT relative to the sTyr7 sulfopeptide” value is given as “two-fold higher affinity”.
For the compound Ac-SDNYTEE-NH2 [9SDNYTEE15], the “ΔG” value at CXCL122 was -4.74 kcal/mol; on CXCL121 it was -3.50 kcal/mol; on CXCL12WT, -3.65 kcal/mol.
As to Ac-SGDYDSM-NH2 [18SGDYDSM24], the “ΔG” value on CXCL122 was -4.2 kcal/mol and -4.20 kcal/mol; on CXCL121, -3.85 kcal/mol; on CXCL12WT, -3.50 kcal/mol.
Take “CXCL121: constitutively monomeric CXCL12 variant with L55C and I58C substitutions (SEQ ID NO:2)”: the “extension of the effective chemotactic dose” value in the assay with MiaPaCa2 cells, in the assay on THP-1 cells and with NALM6 cells was “at least 10 fold” each time. Further, in the assay on U-937 cells (all tested concentrations, 18-24 h, serum-containing media), the “effect on U-937 cell migration” value is “significantly enhanced migration”. The “concentration of peak migration enhancement” value with U-937 cells (bell-shaped dose response) came to 25 nM. In the assay on KG1a cells, the “cleavage of PARP” value is on record as “significantly greater than CXCL122”.

Values taken from patent publication US11369662B2 (The Medical College of Wisconsin, Inc., priority 2014, dated 2022).
